Test in all cases: ≥ marks a high value that may be exact or a test limit, other limits are often not marked, values filed in µg/mL are converted to µM
The subject of assay [1] is Enterococcus faecalis NCTC 12697.
The subject of assay [2] is Staphylococcus aureus NCTC 10788.
The subject of assay [3] is Escherichia coli NCTC 10418.
Assay [4] has as its system Klebsiella pneumoniae ATCC 43816.
For assay [5], the system named is Staphylococcus aureus ATCC 12493.
Assay [6] deals with Pseudomonas aeruginosa ATCC 9027.
For assay [7], the system named is Klebsiella pneumoniae ATCC BAA-1705.
Assay [8] relates to Pseudomonas aeruginosa ATCC 27853.
In assay [9] the test system is Pseudomonas aeruginosa.
Assay [10] concerns Staphylococcus aureus.
The subject of assay [11] is Klebsiella pneumoniae ATCC BAA-2342.
The test system of assay [12] is Escherichia coli ATCC BAA-2340.
For assay [13], the system named is Candida albicans NCYC 1467.
Assay [14] has as its system Escherichia coli ATCC 8739.
For assay [15], the system named is Staphylococcus aureus ATCC 6538.
Assay [16] deals with Kluyveromyces marxianus.
Assay [17] concerns Candida albicans.
The test system of assay [18] is Trichoderma harzianum.
The test system of assay [19] is Fusarium oxysporum.
Assay [20] concerns Pachysolen tannophilus.
Assay [21] deals with Aspergillus niger.
Assay [22] concerns Pseudomonas aeruginosa Z61.
The test system of assay [23] is Vibrio anguillarum.
The test system of assay [24] is Pseudomonas aeruginosa K799.
Assay [25] deals with Salmonella enterica serovar typhimurium MS7953s.
The subject of assay [26] is Aeromonas salmonicida.
Assay [27] relates to Staphylococcus epidermidis C621.
Assay [28] relates to Salmonella enterica subsp. enterica serovar Typhimurium ATCC 14028s.
Assay [29] has as its system Acinetobacter baumannii LMG 01041.
The test system of assay [30] is Escherichia coli LMG 15862.
Assay [31] deals with Pseudomonas aeruginosa LMG 6395.
Assay [32] has as its system Klebsiella pneumoniae LMG 20218.
Assay [33] relates to Klebsiella aerogenes LMG 02094.
Assay [34] concerns Klebsiella pneumoniae WGLW2.
For assay [35], the system named is Staphylococcus aureus ATCC 29231.
Assay [36] deals with Candida albicans ATCC 10231.
The test system of assay [37] is Pseudomonas aeruginosa PA14.
Assay [38] relates to Staphylococcus aureus NCTC 12981.

Values after ≈ are worked out from the molar mass of the structure shown. Where only a bound is given, the exact number is not on record here.

Broadly, the MIC is the lowest concentration found to suppress growth. Read a low MIC as inhibition by little substance. In the case of `CC[C@H](C)[C@H](NC(=O)CNC(=O)CNC(=O)[C@H](C)NC(=O)[C@@H](NC(=O)[C@H](CCCCN)NC(=O)[C@@H]1CCCN1C(=O)[C@@H](NC(=O)[C@H](CC(C)C)NC(=O)[C@H](CO)NC(=O)[C@H](CC(C)C)NC(=O)[C@@H](N)Cc1ccccc1)[C@@H](C)CC)[C@@H](C)CC)C(=O)N[C@@H](C)C(=O)N[C@@H](C)C(=O)N[C@@H](CC(C)C)C(=O)N[C@H](C(=O)N[C@@H](CCCCN)C(=O)N[C@@H](CC(N)=O)C(=O)N[C@@H](CC(C)C)C(N)=O)C(C)C` [FLSLIPKIAGGIAALVKNL], the MIC in assay [1] was at least 32 µM; in assay [2], 4 µM (≈ 7.75 µg/mL); in assay [3], at least 32 µM; in assay [4], at least 64 µM; in [5], 4 µM (≈ 7.75 µg/mL); in assay [6], 256 µM (≈ 496 µg/mL). For the same compound, the MIC in assay [7] was at least 256 µM; in [8], 128 µM (≈ 248 µg/mL); in assay [9], over 512 µM; in [10] it was 8 µM (≈ 15.5 µg/mL); in assay [11], at least 128 µM; in assay [12], at least 64 µM. Further, the MIC was 8 µM (≈ 15.5 µg/mL) in assay [13], at least 128 µM in assay [14] and 2 µM (≈ 3.87 µg/mL) in assay [15].

Turning to `CC[C@H](C)[C@H](NC(=O)[C@H](CC(C)C)NC(=O)[C@@H](NC(=O)[C@@H](N)CC(=O)O)[C@@H](C)O)C(=O)NCC(=O)N[C@@H](CO)C(=O)N[C@H]1CSSC[C@@H]2NC(=O)[C@H](Cc3cnc[nH]3)NC(=O)CNC(=O)CNC(=O)[C@H](CCCCN)NC(=O)[C@H](Cc3ccc(O)cc3)NC(=O)CNC(=O)[C@H](CCCN=C(N)N)NC(=O)[C@H](CCCN=C(N)N)NC(=O)[C@H](CCCCN)NC(=O)[C@@H]3CSSC[C@@H](C(=O)N[C@@H](CCC(=O)O)C(=O)O)NC(=O)[C@H](Cc4c[nH]c5ccccc45)NC(=O)[C@H](CSSC[C@H](NC(=O)[C@H](CC(=O)O)NC(=O)[C@H](CO)NC(=O)[C@H]([C@@H](C)O)NC(=O)[C@H](Cc4ccc(O)cc4)NC(=O)[C@H](CC(N)=O)NC(=O)[C@H]([C@@H](C)O)NC(=O)[C@H](C)NC(=O)CNC(=O)[C@H](Cc4c[nH]c5ccccc45)NC(=O)[C@H](C(C)C)NC1=O)C(=O)N[C@@H](CC(N)=O)C(=O)N[C@@H](C)C(=O)N[C@@H](CCC(=O)O)C(=O)N3)NC(=O)[C@H](CC(N)=O)NC(=O)[C@H](C(C)C)NC(=O)[C@H](CC(N)=O)NC(=O)[C@H](CC(C)C)NC(=O)[C@H](Cc1ccccc1)NC(=O)[C@H](CO)NC(=O)CNC2=O` [DTLIGSCVWGATNYTSDCNAECKRRGYKGGHCGSFLNVNCWCE], the MIC was 8.5 µM (≈ 40.1 µg/mL) in assay [16]; 8.5 µM (≈ 40.1 µg/mL) in assay [17]; 4.2 µM (≈ 19.8 µg/mL) in assay [18]; 16.9 µM (≈ 79.7 µg/mL) in [19]; 8.5 µM (≈ 40.1 µg/mL) in assay [20]; 2.1 µM (≈ 9.9 µg/mL) in assay [21].

Turning to `CC(C)C[C@H](NC(=O)[C@H](C)NC(=O)[C@H](C)NC(=O)[C@H](CCCCN)NC(=O)CNC(=O)[C@@H](NC(=O)[C@H](Cc1cnc[nH]1)NC(=O)[C@H](CCCCN)NC(=O)CNC(=O)[C@@H](NC(=O)[C@H](Cc1cnc[nH]1)NC(=O)[C@H](C)NC(=O)[C@H](C)NC(=O)[C@H](CCCCN)NC(=O)[C@H](CCCCN)NC(=O)[C@H](Cc1ccccc1)NC(=O)[C@H](Cc1ccccc1)NC(=O)[C@H](CO)NC(=O)CNC(=O)[C@H](Cc1c[nH]c2ccccc12)NC(=O)CN)C(C)C)C(C)C)C(=O)NCC(=O)N[C@@H](C)C(=O)N[C@@H](C)C(=O)N[C@@H](C)C(=O)N[C@@H](CCCN=C(N)N)C(=O)N[C@@H](CCCN=C(N)N)C(=O)N[C@@H](CCCN=C(N)N)C(=O)N[C@@H](CCCCN)C(=O)O` [GWGSFFKKAAHVGKHVGKAALGAAARRRK], the MIC stood at 5.22 µM (≈ 16 µg/mL) in assay [22]; 10.4 µM (≈ 32 µg/mL) in assay [23]; 5.22 µM (≈ 16 µg/mL) in [24]; 0.163 µM (≈ 0.5 µg/mL) in assay [25]; 0.326 µM (≈ 1 µg/mL) in [26]; 5.22 µM (≈ 16 µg/mL) in assay [27]. This compound also came in with an MIC in [28] of 5.22 µM (≈ 16 µg/mL).

In the case of `CC[C@H](C)[C@H](NC(=O)[C@H](CCCN=C(N)N)NC(=O)[C@H](CCC(N)=O)NC(=O)[C@@H](NC(=O)[C@@H](NC(=O)[C@@H](N)CCCCN)[C@@H](C)CC)C(C)C)C(=O)N[C@@H](CCCCN)C(=O)N[C@@H](CCCCN)C(=O)N[C@@H](Cc1c[nH]c2ccccc12)C(=O)N[C@@H](CC(C)C)C(=O)N[C@@H](CCCN=C(N)N)C(N)=O` [KIVQRIKKWLR], the MIC in assay [29] is at least 128 µM; in [30] it was 16 µM (≈ 23.5 µg/mL); in [31], 16 µM (≈ 23.5 µg/mL); in assay [32] it was at least 32 µM; in assay [33] it was at least 256 µM.

Turning to `CC[C@H](C)[C@H](NC(=O)[C@H](CCCCN)NC(=O)[C@H](CCCCN)NC(=O)[C@@H](N)CC(C)C)C(=O)NCC(=O)N[C@@H](CCCCN)C(=O)N[C@@H](CCCCN)C(=O)N[C@H](C(=O)N[C@@H](Cc1c[nH]c2ccccc12)C(=O)N[C@@H](CCCN=C(N)N)C(=O)N[C@H](C(=O)NCC(=O)N[C@@H](Cc1c[nH]c2ccccc12)C(=O)N[C@@H](CC(N)=O)C(=O)N[C@H](C(=O)N[C@@H](CCCN=C(N)N)C(=O)N[C@@H](CC(=O)O)C(=O)N[C@@H](C)C(=O)N[C@H](C(=O)N[C@H](C(=O)N[C@@H](CCC(N)=O)C(=O)O)[C@@H](C)CC)[C@@H](C)O)[C@@H](C)O)C(C)C)[C@@H](C)CC` [LKKIGKKIWRVGWNTRDATIQ], the MIC was at least 51 µM in assay [34], at least 51 µM in assay [35], over 51 µM in assay [36] and at least 51 µM in assay [37].

Take `NC(=O)[C@H](CCCN=C(N)N)NC(=O)[C@@H]1CCCN1C(=O)[C@@H]1CCCN1C(=O)[C@H](Cc1c[nH]c2ccccc12)NC(=O)[C@@H]1CCCN1C(=O)[C@@H](N)CCCN=C(N)N` [RPWPPR]: the MIC in [3] and in [38] was at least 158 µM throughout.

The values are drawn from DBAASP.
